The source of these data is US8148391B2 (Cephalon, Inc., priority 2006, dated 2012).

The structures appear in SMILES notation.

Assay [1] addresses T1, c-Met (cytoplasmic domain) (Homo sapiens, UniProt P08581).
T1 construct: 10 ng/mL c-Met (cytoplasmic domain, Invitrogen Corporation #PV3143); purchased Invitrogen Corporation PV3143
The experiment in a line: c-Met Kinase Assay (same methods as for ALK, with modifications). Type of assay: biochemical. The note with it: c-Met kinase inhibition, 1 μM ATP (Km level); read-out: cMet Activity. The essentials: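 Europium-labeled PT66 antibody (Eu-N1) detects substrate phosphorylation on wells coated with phospholipase C-γ at 10 μg/mL. The kinase, the cytoplasmic domain of c-Met at 10 ng/mL, starts the reaction, which proceeds 15 minutes at 37° C.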

For assay [2], the target named is T2, baculovirus-expressed ALK (Homo sapiens, UniProt Q9UM73).
T2 construct: host or cells: baculovirus expression system
T2 sequence (Q9UM73 19-1620): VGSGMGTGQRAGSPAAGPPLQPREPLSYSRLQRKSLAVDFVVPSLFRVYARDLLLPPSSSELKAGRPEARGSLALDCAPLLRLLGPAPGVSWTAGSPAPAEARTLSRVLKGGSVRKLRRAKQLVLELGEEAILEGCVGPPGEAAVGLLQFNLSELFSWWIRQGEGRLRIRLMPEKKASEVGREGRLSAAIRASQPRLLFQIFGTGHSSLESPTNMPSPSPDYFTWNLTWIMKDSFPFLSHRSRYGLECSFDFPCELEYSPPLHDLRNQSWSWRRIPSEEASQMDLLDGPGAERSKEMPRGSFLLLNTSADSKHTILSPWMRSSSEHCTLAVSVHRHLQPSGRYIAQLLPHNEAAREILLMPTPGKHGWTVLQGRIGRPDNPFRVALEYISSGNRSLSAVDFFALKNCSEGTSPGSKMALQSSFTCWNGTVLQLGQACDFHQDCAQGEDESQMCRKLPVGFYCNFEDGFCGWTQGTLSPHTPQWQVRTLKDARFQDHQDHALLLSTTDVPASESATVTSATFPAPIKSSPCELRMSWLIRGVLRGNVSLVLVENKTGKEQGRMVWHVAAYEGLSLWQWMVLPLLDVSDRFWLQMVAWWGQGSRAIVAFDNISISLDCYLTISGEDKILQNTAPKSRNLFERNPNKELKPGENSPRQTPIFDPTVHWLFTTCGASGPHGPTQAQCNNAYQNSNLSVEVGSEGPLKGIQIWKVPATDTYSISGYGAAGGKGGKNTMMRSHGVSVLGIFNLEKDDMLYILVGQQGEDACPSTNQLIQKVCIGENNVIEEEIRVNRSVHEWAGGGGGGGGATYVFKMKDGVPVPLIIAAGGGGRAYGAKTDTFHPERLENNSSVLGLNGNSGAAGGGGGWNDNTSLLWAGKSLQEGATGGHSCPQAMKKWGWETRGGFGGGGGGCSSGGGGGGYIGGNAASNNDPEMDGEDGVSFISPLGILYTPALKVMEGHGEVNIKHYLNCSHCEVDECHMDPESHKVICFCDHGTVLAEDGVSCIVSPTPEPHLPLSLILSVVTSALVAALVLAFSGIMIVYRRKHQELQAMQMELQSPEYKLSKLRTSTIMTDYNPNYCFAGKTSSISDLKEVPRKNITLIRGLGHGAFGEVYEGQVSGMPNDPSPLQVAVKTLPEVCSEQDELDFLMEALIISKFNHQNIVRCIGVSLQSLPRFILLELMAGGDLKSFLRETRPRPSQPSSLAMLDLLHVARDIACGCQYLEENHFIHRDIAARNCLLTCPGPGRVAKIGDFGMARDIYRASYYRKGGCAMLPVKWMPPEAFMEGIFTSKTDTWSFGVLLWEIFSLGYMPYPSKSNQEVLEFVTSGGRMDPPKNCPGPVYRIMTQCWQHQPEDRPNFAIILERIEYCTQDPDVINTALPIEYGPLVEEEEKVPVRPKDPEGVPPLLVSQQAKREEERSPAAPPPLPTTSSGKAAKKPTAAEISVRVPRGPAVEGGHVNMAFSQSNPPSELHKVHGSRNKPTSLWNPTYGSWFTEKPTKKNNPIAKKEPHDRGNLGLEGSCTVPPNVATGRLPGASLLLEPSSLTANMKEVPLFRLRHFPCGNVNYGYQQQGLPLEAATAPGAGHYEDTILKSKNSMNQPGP
The assay can be described thus: ALK Kinase Assay (ELISA-type, time-resolved fluorescence). The class given is biochemical. The following applies: ALK kinase inhibition, 1 μM ATP (Km level); read-out: ALK Activity. The method in brief:
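Plates coated with phospholipase C-γ substrate (10 μg/mL in TBS); reaction started with 30 ng/ml ALK and run 15 min at 37° C. Phosphorylated substrate detected with Eu-N1-labeled PT66 antibody. IC50 from sigmoidal variable-slope fit of percent inhibition vs log concentration.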
In general terms: In an ELISA, binding on a coated surface is turned into a signal by an enzyme label.

T1 sequence (P08581 956-1390 limits assumed): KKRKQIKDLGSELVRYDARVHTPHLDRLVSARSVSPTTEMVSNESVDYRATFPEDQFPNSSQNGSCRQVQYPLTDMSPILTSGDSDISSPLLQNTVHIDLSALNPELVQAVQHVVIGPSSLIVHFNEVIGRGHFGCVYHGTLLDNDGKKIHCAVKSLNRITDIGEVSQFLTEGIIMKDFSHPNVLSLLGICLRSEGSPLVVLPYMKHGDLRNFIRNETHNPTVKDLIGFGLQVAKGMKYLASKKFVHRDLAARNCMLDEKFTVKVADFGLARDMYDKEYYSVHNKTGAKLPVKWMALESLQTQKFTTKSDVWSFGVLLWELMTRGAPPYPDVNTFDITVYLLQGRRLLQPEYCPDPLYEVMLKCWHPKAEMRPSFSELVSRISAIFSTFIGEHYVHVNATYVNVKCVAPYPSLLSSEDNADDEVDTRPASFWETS

On to `CO[C@@H](CN1CCc2ccc(Nc3ncc(Cl)c(N[C@@H]4CCCC[C@H]4NS(C)(=O)=O)n3)cc2CC1)C(F)(F)F` [Example 336, N-((1R,2R)-2-{5-Chloro-2-[3-((S)-3,3,3-trifluoro-2-methoxy-propyl)-2,3,4,5-tetrahydro-1H-benzo[d]azepin-7-ylamino]-pyrimidin-4-ylamino}-cyclohexyl)-methanesulfonamide], for which the IC50 in assay [1] is 100 to 1000 nM; in assay [2], < 100 nM.
Turning to `COc1cc(N2CCOCC2)ccc1Nc1nc(Nc2ccc3c(c2)CCN(C[C@H](OC)C(F)(F)F)CC3)ncc1Cl` [Example 337, 5-Chloro-N*4*-(2-methoxy-4-morpholin-4-yl-phenyl)-N*2*-[-((S)-3,3,3-trifluoro-2-methoxy-propyl)-2,3,4,5-tetrahydro-1H-benzo[d]azepin-7-yl]-pyrimidine-2,4-diamine], the IC50 was > 10000 nM in assay [1] and < 100 nM in assay [2].
For the compound `CCNC(=O)c1ccccc1Nc1nc(Nc2ccc3c(c2)C(C)(C)CCC(=O)N3)ncc1Cl` [Example 339], the IC50 in assay [1] and in assay [2] was < 100 nM in each case.
Regarding `CC(C)NC(=O)c1ccccc1Nc1nc(Nc2ccc3c(c2)C(C)(C)CCC(=O)N3)ncc1Cl` [Example 340], the IC50 in assay [1] is 100 to 1000 nM; in assay [2], < 100 nM.
In the case of `CC1(C)CCC(=O)Nc2ccc(Nc3ncc(Cl)c(Nc4ccccc4C(=O)NC4CC4)n3)cc21` [Example 341], the IC50 is 100 to 1000 nM in assay [1] and < 100 nM in assay [2].
Take `COCCN1CCc2ccc(Nc3ncc(Cl)c(Nc4ccccc4C(=O)NC(C)C)n3)cc2CC1` [Example 342, 2-{5-Chloro-2-[3-(2-methoxy-ethyl)-2,3,4,5-tetrahydro-1H-benzo[d]azepin-7-ylamino]-pyrimidin-4-ylamino}-N-isopropyl-benzamide]: the IC50 in assay [1] is 100 to 1000 nM; in assay [2], < 100 nM.
Regarding `CCNC(=O)c1ccccc1Nc1nc(Nc2ccc3c(c2)CCN(CCOC)CC3)ncc1Cl` [Example 343, 2-{5-Chloro-2-[3-(2-methoxy-ethyl)-2,3,4,5-tetrahydro-1H-benzo[d]azepin-7-ylamino]-pyrimidin-4-ylamino}-N-ethyl-benzamide], the IC50 in assay [1] and in assay [2] was < 100 nM each time.
In the case of `COCCN1CCc2ccc(Nc3ncc(Cl)c(Nc4ccccc4C(=O)NC4CC4)n3)cc2CC1` [Example 344, 2-{5-Chloro-2-[3-(2-methoxy-ethyl)-2,3,4,5-tetrahydro-1H-benzo[d]azepin-7-ylamino]-pyrimidin-4-ylamino}-N-cyclopropyl-benzamide], the IC50 in assay [1] was 100 to 1000 nM; in assay [2], < 100 nM.
On to `CC(=O)c1ccccc1Nc1nc(Nc2ccc3c(c2)CCCC(=O)N3C)ncc1Cl` [Example 351, 7-[4-(2-Acetyl-phenylamino)-5-chloro-pyrimidin-2-ylamino]-1-methyl-1,3,4,5-tetrahydro-benzo[b]azepin-2-one], for which the IC50 in assay [1] and in assay [2] was < 100 nM each time.
Consider `CNC(=O)c1cccc(Cl)c1Nc1nc(Nc2ccc3c(c2)CCCC(=O)N3C)ncc1Cl` [Example 352, 3-Chloro-2-[5-chloro-2-(1-methyl-2-oxo-2,3,4,5-tetrahydro-1H-benzo[b]azepin-7-ylamino)-pyrimidin-4-ylamino]-N-methyl-benzamide], for which the figures for the IC50 in assay [1] and in assay [2] were < 100 nM and 1000 to 10000 nM, respectively.
As for `CN1C(=O)CCCc2cc(Nc3ncc(Cl)c(Nc4ccc(N5CCCCC5)cc4C(N)=O)n3)ccc21` [Example 354, 2-[5-Chloro-2-(1-methyl-2-oxo-2,3,4,5-tetrahydro-1H-benzo[b]azepin-7-ylamino)-pyrimidin-4-ylamino]-5-piperidin-1-yl-benzamide], the IC50 in assay [1] and in assay [2] was < 100 nM throughout.
As for `CN1C(=O)CCCc2cc(Nc3ncc(Cl)c(Nc4ccc(N5CCOCC5)cc4C(N)=O)n3)ccc21` [Example 355, 2-[5-Chloro-2-(1-methyl-2-oxo-2,3,4,5-tetrahydro-1H-benzo[b]azepin-7-ylamino)pyrimidin-4-ylamino]-5-morpholin-4-yl-benzamide], the IC50 in assay [1] was 100 to 1000 nM; in assay [2] it was < 100 nM.
As to `CNC(=O)c1cccc(F)c1Nc1nc(Nc2ccc3c(c2)CCCC(=O)N3CCOC)ncc1Cl` [Example 356, 2-{5-Chloro-2-[1-(2-methoxy-ethyl)-2-oxo-2,3,4,5-tetrahydro-1H-benzo[b]azepin-7-ylamino]-pyrimidin-4-ylamino}-3-fluoro-N-methyl-benzamide], the IC50 in assay [1] and in assay [2] was < 100 nM in each case.
As to `CNC(=O)c1cccc(Cl)c1Nc1nc(Nc2ccc3c(c2)CCCC(=O)N3CCOC)ncc1Cl` [Example 357, 3-Chloro-2-{5-chloro-2-[1-(2-methoxy-ethyl)-2-oxo-2,3,4,5-tetrahydro-1H-benzo[b]azepin-7-ylamino]-pyrimidin-4-ylamino}-N-methyl-benzamide], the values for the IC50 in assay [1] and in assay [2] were < 100 nM and 1000 to 10000 nM, respectively.
Consider `CCN1C(=O)CCCc2ccc(Nc3ncc(Cl)c(Nc4c(F)cccc4C(=O)NC)n3)cc21` [Example 358, 2-[5-Chloro-2-(1-ethyl-2-oxo-2,3,4,5-tetrahydro-1H-benzo[b]azepin-8-ylamino)pyrimidin-4-ylamino]-3-fluoro-N-methyl-benzamide], for which the IC50 in assay [1] and in assay [2] was < 100 nM throughout.
For `CCN1C(=O)CCCc2ccc(Nc3ncc(Br)c(Nc4c(F)cccc4C(=O)NC)n3)cc21` [Example 359, 2-[5-Bromo-2-(1-ethyl-2-oxo-2,3,4,5-tetrahydro-1H-benzo[b]azepin-8-ylamino)-pyrimidin-4-ylamino]-3-fluoro-N-methyl-benzamide], the IC50 in assay [1] and in assay [2] was < 100 nM each time.
`CCN1C(=O)CCCc2ccc(Nc3ncc(Cl)c(Nc4c(C)cccc4C(=O)NC)n3)cc21` [Example 360, 2-[5-Chloro-2-(1-ethyl-2-oxo-2,3,4,5-tetrahydro-1H-benzo[b]azepin-8-ylamino)-pyrimidin-4-ylamino]-3,N-dimethyl-benzamide]: the IC50 is < 100 nM in assay [1] and 1000 to 10000 nM in assay [2].
Take `CNC(=O)c1cccc(C)c1Nc1nc(Nc2ccc3c(c2)N(CCOC)C(=O)CCC3)ncc1Cl` [Example 361, 2-{5-Chloro-2-[1-(2-methoxy-ethyl)-2-oxo-2,3,4,5-tetrahydro-1H-benzo[b]azepin-8-ylamino]-pyrimidin-4-ylamino}-3,N-dimethyl-benzamide]: the results for the IC50 in assay [1] and in assay [2] were < 100 nM and 1000 to 10000 nM, respectively.
In the case of `CNC(=O)c1ccccc1Nc1nc(Nc2cc3c(cc2OC)CCN(CC(=O)N(C)C)CC3)ncc1Br` [Example 376, 2-[5-Bromo-2-(3-dimethylcarbamoylmethyl-8-methoxy-2,3,4,5-tetrahydro-1H-benzo[d]azepin-7-ylamino)-pyrimidin-4-ylamino]-N-methyl-benzamide], the IC50 is 1000 to 10000 nM in assay [1] and < 100 nM in assay [2].
With `CC1(C)CCC(=O)Nc2ccc(Nc3ncc(Cl)c(N[C@@H]4CCCC[C@H]4NS(C)(=O)=O)n3)cc21` [Example 383, N-{(1R,2R)-2-[5-Chloro-2-(5,5-dimethyl-2-oxo-2,3,4,5-tetrahydro-1H-benzo[b]azepin-7-ylamino)-pyrimidin-4-ylamino]-cyclohexyl}-methanesulfonamide], the IC50 in assay [1] was 1000 to 10000 nM; in assay [2] it was < 100 nM.
`CNC(=O)c1ccccc1Nc1nc(Nc2ccc3c(c2)C(C)(C)CCC(=O)N3C)ncc1Cl` [Example 384, 2-[5-Chloro-2-(1,5,5-trimethyl-2-oxo-2,3,4,5-tetrahydro-1H-benzo[b]azepin-7-ylamino)-pyrimidin-4-ylamino]-N-methyl-benzamide]: the IC50 in assay [1] and in assay [2] was < 100 nM each time.
On to `CN1C(=O)CCC(C)(C)c2cc(Nc3ncc(Cl)c(N[C@@H]4CCCC[C@H]4NS(C)(=O)=O)n3)ccc21` [Example 385, N-{(1R,2R)-2-[5-Chloro-2-(1,5,5-trimethyl-2-oxo-2,3,4,5-tetrahydro-1H-benzo[b]azepin-7-ylamino)-pyrimidin-4-ylamino]-cyclohexyl}-methanesulfonamide], for which the IC50 in assay [1] was 100 to 1000 nM; in assay [2], < 100 nM.
For `CCN1C(=O)CCC(C)(C)c2cc(Nc3ncc(Cl)c(Nc4ccccc4C(=O)NC)n3)ccc21` [Example 387, 2-[5-Chloro-2-(1-ethyl-5,5-dimethyl-2-oxo-2,3,4,5-tetrahydro-1H-benzo[b]azepin-7-ylamino)-pyrimidin-4-ylamino]-N-methyl-benzamide] the same measures were < 100 nM and < 100 nM.
Regarding `CCN1C(=O)CCC(C)(C)c2cc(Nc3ncc(Cl)c(N[C@@H]4CCCC[C@H]4NS(C)(=O)=O)n3)ccc21` [Example 388, N-{(1R,2R)-2-[5-Chloro-2-(1-ethyl-5,5-dimethyl-2-oxo-2,3,4,5-tetrahydro-1H-benzo[b]azepin-7-ylamino)-pyrimidin-4-ylamino]-cyclohexyl}-methanesulfonamide], the results for the IC50 in assay [1] and in assay [2] were 1000 to 10000 nM and < 100 nM, respectively.
The corresponding values for `CCN1C(=O)CCC(C)(C)c2cc(Nc3ncc(Cl)c(Nc4c(Cl)cccc4C(=O)NC)n3)ccc21` [Example 389, 3-Chloro-2-[5-chloro-2-(1-ethyl-5,5-dimethyl-2-oxo-2,3,4,5-tetrahydro-1H-benzo[b]azepin-7-ylamino)-pyrimidin-4-ylamino]-N-methyl-benzamide] are 100 to 1000 nM and 100 to 1000 nM.
For `CCN1C(=O)CCC(C)(C)c2cc(Nc3ncc(Cl)c(Nc4ccc(N5CCOCC5)cc4OC)n3)ccc21` [Example 391, 7-[5-Chloro-4-(2-methoxy-4-morpholin-4-yl-phenylamino)-pyrimidin-2-ylamino]-1-ethyl-5,5-dimethyl-1,3,4,5-tetrahydro-benzo[b]azepin-2-one] the same measures were > 10000 nM and < 100 nM.
